Source: patent publication US6479435B1, “Diaryl ethers and processes for their preparation and herbicidal and desiccant compositions containing them” (ISK Americas Incorporated, priority 1997, dated 2002)

Experiments:
Type in all cases: in vivo
[1] = system: Johnsongrass (Sorghum halepense, SORHA); experiment: Pre-emerge greenhouse herbicide test, phytotoxicity rating; conditions: 14 days after application, rating scale 0-100
Summary of the method: (§1)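 Visual 0–100 injury rating (100 = all plants dead) taken 14 days after treatment. Rates of 125–1000 g ai/ha in acetone, 187 l/ha, were sprayed onto soil one day post-sowing; pots were surface-watered to incorporate, then bottom-watered.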

[2] = system: barnyardgrass (Echinochloa crusgalli, ECHCG); experiment: as above; conditions: 14 days after application, rating scale 0-100
Summary of the method: as §1

[3] = system: common ragweed (Ambrosia artemisiifolia L., AMBEL); experiment: as above; conditions: 14 days after application, rating scale 0-100
Summary of the method: as §1

[4] = system: green foxtail (Setaria viridis, SETVI); experiment: as above; conditions: 14 days after application, rating scale 0-100
Summary of the method: as §1

[5] = system: ivyleaf morningglory (Ipomoea hederacea, IPOHE); experiment: as above; conditions: 14 days after application, rating scale 0-100
Summary of the method: as §1

[6] = system: lambsquarters (Chenopodium album, CHEAL); experiment: as above; conditions: 14 days after application, rating scale 0-100
Summary of the method: as §1

[7] = system: large crabgrass (Digitaria sanguinalis, DIGSA); experiment: as above; conditions: 14 days after application, rating scale 0-100
Summary of the method: as §1

[8] = system: redroot pigweed (Amaranthus retroflexus, AMARE); experiment: as above; conditions: 14 days after application, rating scale 0-100
Summary of the method: as §1

[9] = system: sicklepod (Cassia obtusifolia, CASOB); experiment: as above; conditions: 14 days after application, rating scale 0-100
Summary of the method: as §1

[10] = system: velvetleaf (Abutilon theophrasti, ABUTH); experiment: as above; conditions: 14 days after application, rating scale 0-100
Summary of the method: as §1

[11] = system: field corn (Zea mays L., var. Dekalb 535, CORN); experiment: Pre-emerge greenhouse test, crop damage rating; conditions: 14 days after application, rating scale 0-100
Summary of the method: as §1

[12] = system: upland rice (Oryza sp., var.Tebonnet, RICE); experiment: Pre-emerge greenhouse test, crop damage rating; conditions: 14 days after application, rating scale 0-100
Summary of the method: as §1

[13] = system: soybean (Glycine max L., var. Pella 86, SOY); experiment: Pre-emerge greenhouse test, crop damage rating; design: key to SOY crop damage rating: 0 = no damage, 100 = complete death of all plants; conditions: 14 days after application, rating scale 0-100
Summary of the method: as §1

[14] = system: common ragweed (Ambrosia artemisiifolia L., AMBEL); experiment: Post-emerge greenhouse herbicide test, phytotoxicity rating; conditions: 14 days after application; for phytotoxicity rating AMBEL: scale 0-100
Summary of the method: (§2)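 Scores use a 0 (no damage) to 100 (complete kill) scale, taken 14 days after a foliar spray. Acetone solutions with 0.25% v/v non-ionic surfactant were applied by track sprayer at 187 l/ha and 63-1000 g ai/ha to bottom-watered 2-3 leaf plants.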

[15] = system: Johnsongrass (Sorghum halepense, SORHA); experiment: as above; conditions: 14 days after application; for phytotoxicity rating SORHA: scale 0-100
Summary of the method: as §2

[16] = system: barnyardgrass (Echinochloa crusgalli, ECHCG); experiment: as above; conditions: 14 days after application; for phytotoxicity rating ECHCG: scale 0-100
Summary of the method: as §2

[17] = system: green foxtail (Setaria viridis, SETVI); experiment: as above; conditions: 14 days after application; for phytotoxicity rating SETVI: scale 0-100
Summary of the method: as §2

[18] = system: ivyleaf morningglory (Ipomoea hederacea, IPOHE); experiment: as above; conditions: 14 days after application; for phytotoxicity rating IPOHE: scale 0-100
Summary of the method: as §2

[19] = system: lambsquarters (Chenopodium album, CHEAL); experiment: as above; conditions: 14 days after application; for phytotoxicity rating CHEAL: scale 0-100
Summary of the method: as §2

[20] = system: large crabgrass (Digitaria sanguinalis, DIGSA); experiment: as above; conditions: 14 days after application; for phytotoxicity rating DIGSA: scale 0-100
Summary of the method: as §2

[21] = system: redroot pigweed (Amaranthus retroflexus, AMARE); experiment: as above; conditions: 14 days after application; for phytotoxicity rating AMARE: scale 0-100
Summary of the method: as §2

[22] = system: sicklepod (Cassia obtusifolia, CASOB); experiment: as above; conditions: 14 days after application; for phytotoxicity rating CASOB: scale 0-100
Summary of the method: as §2

[23] = system: velvetleaf (Abutilon theophrasti, ABUTH); experiment: as above; conditions: 14 days after application; for phytotoxicity rating ABUTH: scale 0-100
Summary of the method: as §2

[24] = system: field corn (Zea mays L., var. Dekalb 535, CORN); experiment: Post-emerge greenhouse test, crop damage rating; conditions: 14 days after application; for crop damage rating CORN: scale 0-100
Summary of the method: as §2

[25] = system: upland rice (Oryza sp., var.Tebonnet, RICE); experiment: Post-emerge greenhouse test, crop damage rating; conditions: 14 days after application; for crop damage rating RICE: scale 0-100
Summary of the method: as §2

[26] = system: soybean (Glycine max L., var. Pella 86, SOY); experiment: Post-emerge greenhouse test, crop damage rating; design: key to crop damage rating SOY: 0-100 scale: 0 = no damage, 100 = complete death of all plants; conditions: 14 days after application; for crop damage rating SOY: scale 0-100
Summary of the method: as §2

Cn1c(C(F)(F)F)nc(-c2cc(Oc3ncccc3C(F)(F)F)c(Cl)cc2F)c1Cl [Compound 2-2]
phytotoxicity rating SORHA ([1]; 500 g ai/ha): 30 | phytotoxicity rating ECHCG ([2]; 500 g ai/ha): 0 | phytotoxicity rating AMBEL ([3]; 500 g ai/ha): 20 | phytotoxicity rating SETVI ([4]; 500 g ai/ha): 100 | phytotoxicity rating IPOHE ([5]; 500 g ai/ha): 60 | phytotoxicity rating CHEAL ([6]; 500 g ai/ha): 60 | phytotoxicity rating DIGSA ([7]; 500 g ai/ha): 20 | phytotoxicity rating AMARE ([8]; 500 g ai/ha): 100 | phytotoxicity rating CASOB ([9]; 500 g ai/ha): 0 | phytotoxicity rating ABUTH ([10]; 500 g ai/ha): 10 | crop damage rating CORN ([11]; 500 g ai/ha): 0 | crop damage rating RICE ([12]; 500 g ai/ha): 0 | crop damage rating SOY ([13]; 500 g ai/ha): 15 | AMBEL phytotoxicity rating (0-100) ([14]; 500 g al/ha): 25 | SORHA phytotoxicity rating (0-100) ([15]; 500 g al/ha): 40 | ECHCG phytotoxicity rating (0-100) ([16]; 500 g al/ha): 30 | SETVI phytotoxicity rating (0-100) ([17]; 500 g al/ha): 30 | IPOHE phytotoxicity rating (0-100) ([18]; 500 g al/ha): 75 | CHEAL phytotoxicity rating (0-100) ([19]; 500 g al/ha): 90 | DIGSA phytotoxicity rating (0-100) ([20]; 500 g al/ha): 10 | AMARE phytotoxicity rating (0-100) ([21]; 500 g al/ha): 95 | CASOB phytotoxicity rating (0-100) ([22]; 500 g al/ha): 0 | ABUTH phytotoxicity rating (0-100) ([23]; 500 g al/ha): 70 | CORN crop damage rating (0-100) ([24]; 500 g al/ha): 20 | RICE crop damage rating (0-100) ([25]; 500 g al/ha): 40 | SOY crop damage rating (0-100) ([26]; 500 g al/ha): 35

O=c1n(-c2cc(Oc3nccc(C(F)(F)F)n3)c(Cl)cc2F)c(=S)n2n1CCCC2 [Compound 8-30]
SORHA phytotoxicity rating ([1]; Rate 125 g al/ha): 40 | SORHA phytotoxicity rating ([1]; Rate 500 g al/ha): 99 | ECHCG phytotoxicity rating ([2]; Rate 125 g al/ha): 40 | ECHCG phytotoxicity rating ([2]; Rate 500 g al/ha): 99 | AMBEL phytotoxicity rating ([3]; Rate 125 g al/ha): 100 | AMBEL phytotoxicity rating ([3]; Rate 500 g al/ha): 99 | SETVI phytotoxicity rating ([4]; Rate 125 g al/ha): 100 | SETVI phytotoxicity rating ([4]; Rate 500 g al/ha): 100 | IPOHE phytotoxicity rating ([5]; Rate 125 g al/ha): 100 | IPOHE phytotoxicity rating ([5]; Rate 500 g al/ha): 90 | CHEAL phytotoxicity rating ([6]; Rate 125 g al/ha): 100 | CHEAL phytotoxicity rating ([6]; Rate 500 g al/ha): 100 | DIGSA phytotoxicity rating ([7]; Rate 125 g al/ha): 70 | DIGSA phytotoxicity rating ([7]; Rate 500 g al/ha): 100 | AMARE phytotoxicity rating ([8]; Rate 125 g al/ha): 100 | AMARE phytotoxicity rating ([8]; Rate 500 g al/ha): 100 | CASOB phytotoxicity rating ([9]; Rate 125 g al/ha): 100 | CASOB phytotoxicity rating ([9]; Rate 500 g al/ha): 100 | ABUTH phytotoxicity rating ([10]; Rate 125 g al/ha): 100 | ABUTH phytotoxicity rating ([10]; Rate 500 g al/ha): 100 | CORN crop damage rating ([11]; Rate 125 g al/ha): 10 | CORN crop damage rating ([11]; Rate 500 g al/ha): 20 | RICE crop damage rating ([12]; Rate 125 g al/ha): 20 | RICE crop damage rating ([12]; Rate 500 g al/ha): 90 | SOY crop damage rating ([13]; Rate 125 g al/ha): 80 | SOY crop damage rating ([13]; Rate 500 g al/ha): 80 | phytotoxicity rating AMBEL ([14]; rate 63 g ai/ha): 90 | phytotoxicity rating AMBEL ([14]; rate 500 g ai/ha): 99 | phytotoxicity rating SORHA ([15]; rate 63 g ai/ha): 20 | phytotoxicity rating SORHA ([15]; rate 500 g ai/ha): 95 | phytotoxicity rating ECHCG ([16]; rate 63 g ai/ha): 10 | phytotoxicity rating ECHCG ([16]; rate 500 g ai/ha): 40 | phytotoxicity rating SETVI ([17]; rate 63 g ai/ha): 60 | phytotoxicity rating SETVI ([17]; rate 500 g ai/ha): 95 | phytotoxicity rating IPOHE ([18]; rate 63 g ai/ha): 100 | phytotoxicity rating IPOHE ([18]; rate 500 g ai/ha): 100 | phytotoxicity rating CHEAL ([19]; rate 63 g ai/ha): 95 | phytotoxicity rating CHEAL ([19]; rate 500 g ai/ha): 100 | phytotoxicity rating DIGSA ([20]; rate 63 g ai/ha): 0 | phytotoxicity rating DIGSA ([20]; rate 500 g ai/ha): 10 | phytotoxicity rating AMARE ([21]; rate 63 g ai/ha): 90 | phytotoxicity rating AMARE ([21]; rate 500 g ai/ha): 100 | phytotoxicity rating CASOB ([22]; rate 63 g ai/ha): 100 | phytotoxicity rating CASOB ([22]; rate 500 g ai/ha): 100 | phytotoxicity rating ABUTH ([23]; rate 63 g ai/ha): 100 | phytotoxicity rating ABUTH ([23]; rate 500 g ai/ha): 100 | crop damage rating CORN ([24]; rate 63 g ai/ha): 15 | crop damage rating CORN ([24]; rate 500 g ai/ha): 40 | crop damage rating RICE ([25]; rate 63 g ai/ha): 5 | crop damage rating RICE ([25]; rate 500 g ai/ha): 80 | crop damage rating SOY ([26]; rate 63 g ai/ha): 95 | crop damage rating SOY ([26]; rate 500 g ai/ha): 100
